A value given as a limit tells only on which side of the number the result lay.

Data on 36 compounds can be found in patent publication US9938249B2, “Anti-amyloid compounds containing benzofurazan” (Treventis Corporation, priority 2014, dated 2018).

Chain of Terminally biotinylated beta-amyloid (Aβ42) (P05067 672-713, species assumed): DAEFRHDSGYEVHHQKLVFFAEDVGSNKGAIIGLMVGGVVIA

The assay has as its target Terminally biotinylated beta-amyloid (Aβ42) (Homo sapiens, UniProt P05067). Kind of assay: Aβ42 biotinylated (biotin-AB) oligomerization assay, NeutrAvidin capture ELISA. The note with it: approximate value; 1 hr oligomerization at room temperature; read-out: IC50 Aβ 42-bio. The format is biochemical. The protocol: Aβ42 Biotinylated Assay Terminally biotinylated beta-amyloid (biotin-AB) was dissolved in HFIP at the concentration of 1 mg/ml and aliquoted to 50 μl/tube in 0.65 ml colored microfuge tubes (Fisher 02-681-248). The aliquots were diluted immediately by adding 450 μl of HFIP to 0.1 mg/ml. Approximately 46 ul (containing approximately 4.6 ug of biotin-AB) were taken from a tube, 100 ul of HFIP added, vortexed, and dried to a thin film under an N2 stream. 100 μl of trifluoroacetic acid (TFA) was added and vortexed. After 10 minute incubation at room temperature in a hood, resulting in disaggregation of seeds, the sample was vortexed again and dried again to a thin film under an N2 stream. 100 μl of HFIP was added, mixed, and the biotin-AB sample was dried for a third time under an N2 stream to remove residual TFA. The treated biotin-AB was dissolved in DMSO to a final peptide concentration of […] (SOX). An ELISA “capture” plate (Costar 9018) was coated with 50 μl of 1 μg/ml NeutrAvidin™ (NA) in 10 mM sodium phosphate buffer, pH 7.5. (NeutrAvidin can be prepared as 1 mg/ml (1000×) in milliQ water/10% glycerol and stored at −80° C. before use.) The plate was sealed plate with adhesive film and stored at 4° C. overnight, then blocked for 2 hours (unsealed) at room temperature with 200 μl/well OFB+0.1% v/v Tween 20. The “capture” plate was allowed to come to room temperature. Several dilutions of test compound were prepared with 100% DMSO, according to the desired concentration to be tested. 2.5 μl of diluted test compound was pipetted into the bottom of each well of a 96-well “dilution” polypropylene plate (Costar 3365), to which was added 250 ul of Oligomer Formation Buffer (OFB: 20 mM sodium phosphate, pH 7.5-150 mM NaCl). To begin oligomerization, 2 μl/well of the biotin-AB was added to the bottom of each well of a 96-well “reaction” polypropylene plate (Costar 3365) and 100 ul of each well of the “dilution” plate was transferred to the “reaction” plate (final concentration of DMSO being up to 1%). The reaction plate was sealed and incubated for 1 hr at room temperature without shaking. The reaction was then stopped by the addition of 50 ul of 0.3% Tween 20 in water. The “capture” plate blocking solution was removed, and 50 ul of each well of the “reaction” plate was transferred to each well of the “capture” plate. The “capture” plate was sealed and incubated for 2 hours at room temperature with shaking at 150 rpm. The “capture” plate was then washed on a plate washer (3×) with 200 ul/well TBST (20 mM Tris-HCL, pH 7.5/150 mM NaCl/0.1% Tween 20). 50 ul of Streptavidin-horseradish […] (1:20,000 dilution) in OFB+0.1% Tween 20 was added to each well, the “capture” plate was sealed and incubated for 1 hr with shaking at 150 rpm. As before, the plate was washed, then 100 ul of TMB/H2O2 substrate solution was added to each well. After 5-10 minutes, 100 ul of 1% v/v sulfuric acid was added and the absorbance of each well was read at 450 nm using a standard plate reader. Data is summarized in the table below; numbers given in parenthesis for the Aβ 40 Thioflavin T assays are the values in that particular experiment for compound ID 1027, given as the first entry in this table for structural comparison. “IC50 Aβ42-bio” column refers to the approximate value of the Aβ42 biotinylated assay IC50 in micromoles/L.
On the technique in general: In an ELISA, binding on a coated surface is turned into a signal by an enzyme label.
For the compound `OC(c1cccnc1-c1cc(N2CC(CN3CCOCC3)C2)c2nonc2c1)C(F)(F)F` (stereo not drawn) [compound 1563, 2,2,2-trifluoro-1-(2-(7-(3-(morpholinomethyl)azetidin-1-yl)benzo[c][1,2,5]oxadiazol-5-yl)pyridin-3-yl)ethan-1-ol], the half-inhibitory concentration (IC50) was over 20 µM. Then `Fc1ccc(-c2cc(N3CC(CN4CCCC4)C3)c3nonc3c2)cc1` [compound 1547], with 12 µM.

With `OC(c1cnc(-c2cc(N3CC(CN4CCCC4)C3)c3nonc3c2)s1)C(F)(F)F` (stereo not drawn) [compound 1546], the 50% inhibitory concentration (IC50) turned out to be 8.4 µM. Then `COc1cc(N2CC(CN3CCOCC3)C2)c2nonc2c1` [compound 1611, 6-methoxy-4-(3-(morpholinomethyl)azetidin-1-yl)benzo[c][1,2,5]oxadiazole], with over 20 µM; and `COc1cc(N2CC(CN3CCOCC3)C2)c2nonc2c1C` [compound 1613, 5-methoxy-4-methyl-7-(3-(morpholinomethyl)azetidin-1-yl)benzo[c][1,2,5]oxadiazole], with over 20 µM; and `Cn1ncc(-c2cc(N3CC(CN4CCOCC4)C3)c3nonc3c2)c1C(O)C(F)(F)F` (stereo not drawn) [compound 1647], with 14.7 µM. Then `OC(c1ccnc(-c2cc(N3CC(CN4CCCC4)C3)c3nonc3c2)c1)C(F)(F)F` (stereo not drawn) [compound 1587, 2,2,2-trifluoro-1-(2-(7-(3-(pyrrolidin-1-ylmethyl)azetidin-1-yl)benzo[c][1,2,5]oxadiazol-5-yl)pyridin-4-yl)ethan-1-ol], with 12.3 µM; and `OC(c1nc(-c2cc(N3CC(CN4CCCC4)C3)c3nonc3c2)cs1)C(F)(F)F` (stereo not drawn) [compound 1567], with 26.9 µM; and `OC(c1cccnc1-c1cc(N2CC(CN3CCCC3)C2)c2nonc2c1)C(F)(F)F` (stereo not drawn) [compound 1564, 2,2,2-trifluoro-1-(2-(7-(3-(pyrrolidin-1-ylmethyl)azetidin-1-yl)benzo[c][1,2,5]oxadiazol-5-yl)pyridin-3-yl) ethan-1-ol], with 6 µM. Then `OC1(c2ccc(-c3cc(N4CCC(N5CCOCC5)CC4)c4nonc4c3)cc2)COC1` [compound 1717], with 22.6 µM. Take `OC(c1nc(-c2cc(N3CC(CN4CCOCC4)C3)c3nonc3c2)cs1)C(F)(F)F` (stereo not drawn) [compound 1627]: the IC50 was 10.4 µM. In the case of `NC(=O)c1cccc(-c2cc(N3CC(CN4CCCC4)C3)c3nonc3c2)c1` [compound 1609, 3-(7-(3-(pyrrolidin-1-ylmethyl)azetidin-1-yl)benzo[c][1,2,5]oxadiazol-5-yl)benzamide] it was 2.4 µM; in that of `Fc1cc(F)cc(-c2cc(N3CC(CN4CCOCC4)C3)c3nonc3c2)c1` [compound 1588, 6-(3,5-difluorophenyl)-4-(3-(morpholinomethyl)azetidin-1-yl) benzo[c][1,2,5]oxadiazole], 30.2 µM; in that of `COc1ncccc1-c1cc(N2CC(CN3CCOCC3)C2)c2nonc2c1` [compound 1658, 6-(2-methoxypyridin-3-yl)-4-(3-(morpholinomethyl)azetidin-1-yl) benzo[c][1,2,5]oxadiazole], over 20 µM. In the case of `CC(C)(O)c1ccc(-c2cc(N3CC(CN4CCOCC4)C3)c3nonc3c2)cc1` [compound 1616] it was 16.2 µM; in that of `Clc1cc(Cl)cc(-c2cc(N3CC(CN4CCOCC4)C3)c3nonc3c2)c1` [compound 1575, 6-(3,5-dichlorophenyl)-4-(3-(morpholinomethyl)azetidin-1-yl) benzo[c][1,2,5]oxadiazole], 4 µM; in that of `OCc1csc(-c2cc(N3CC(CN4CCOCC4)C3)c3nonc3c2)n1` [compound 1565], over 20 µM. In the case of `OC(c1coc(-c2cc(N3CC(CN4CCOCC4)C3)c3nonc3c2)n1)C(F)(F)F` (stereo not drawn) [compound 1608, 2,2,2-trifluoro-1-(2-(7-(3-(morpholinomethyl)azetidin-1-yl)benzo[c][1,2,5]oxadiazol-5-yl)oxazol-4-yl)ethan-1-ol] it was 8.6 µM. On to `OC(c1cncc(-c2cc(N3CC(CN4CCOCC4)C3)c3nonc3c2)c1)C(F)(F)F` (stereo not drawn) [compound 1621, 2,2,2-trifluoro-1-(5-(7-(3-(morpholinomethyl)azetidin-1-yl)benzo[c][1,2,5]oxadiazol-5-yl)pyridin-3-yl)ethan-1-ol], for which the IC50 was determined as 16.7 µM. Then `CSc1cc(N2CC(CN3CCOCC3)C2)c2nonc2c1` [compound 1612, 6-(methylthio)-4-(3-(morpholinomethyl)azetidin-1-yl) benzo[c][1,2,5]oxadiazole], with over 20 µM; and `COc1cc(-c2cc(N3CC(CN4CCOCC4)C3)c3nonc3c2)ccc1F` [compound 1584, 6-(4-fluoro-3-methoxyphenyl)-4-(3-(morpholinomethyl)azetidin-1-yl) benzo[c][1,2,5]oxadiazole], with 7 µM. Then `N#Cc1cc(N2CC(CN3CCOCC3)C2)c2nonc2c1` [compound 1570, 7-(3-(morpholinomethyl)azetidin-1-yl) benzo[c][1,2,5]oxadiazole-5-carbonitrile], with over 20 µM; and `OC(c1cncc(-c2cc(N3CC(CN4CCCC4)C3)c3nonc3c2)c1)C(F)(F)F` (stereo not drawn) [compound 1544], with 3.9 µM; and `Cc1cc(C)c(-c2cc(N3CC(CN4CCCC4)C3)c3nonc3c2)c(C)c1` [compound 1558], with 5.9 µM. Regarding `O=C(c1cc(N2CC(CN3CCCC3)C2)c2nonc2c1)N1CCCCC1` [compound 1552], the IC50 was found to be 5.7 µM. In the case of `NC(=O)c1ccc(-c2cc(N3CC(CN4CCOCC4)C3)c3nonc3c2)cc1` [compound 1610, 4-(7-(3-(morpholinomethyl)azetidin-1-yl)benzo[c][1,2,5]oxadiazol-5-yl)benzamide] it was over 20 µM; in that of `OC(c1cnc(-c2cc(N3CC(CN4CCCC4)C3)c3nonc3c2)s1)C(F)(F)F` (stereo not drawn) [compound 1597], 7.5 µM; in that of `OCc1cnc(-c2cc(N3CC(CN4CCOCC4)C3)c3nonc3c2)s1` [compound 1594], over 20 µM. Then `CC(C)(O)C1CC1c1cc(N2CC(CN3CCOCC3)C2)c2nonc2c1` (stereo not drawn) [compound 1666, 2-(2-(7-(3-(morpholinomethyl)azetidin-1-yl)benzo[c][1,2,5]oxadiazol-5-yl)cyclopropyl)propan-2-ol], with over 20 µM. In the case of `OC1(c2cccc(-c3cc(N4CC(CN5CCOCC5)C4)c4nonc4c3)c2)COC1` [compound 1638] it was 3 µM. As to `OC(c1ccc(-c2cc(N3CC(CN4CCOCC4)C3)c3nonc3c2)nc1)C(F)(F)F` (stereo not drawn) [compound 1622, 2,2,2-trifluoro-1-(6-(7-(3-(morpholinomethyl)azetidin-1-yl)benzo[c][1,2,5]oxadiazol-5-yl)pyridin-3-yl)ethan-1-ol], the half-inhibitory concentration (IC50) came out at 5.8 µM. In the case of `CC(=O)N1CCCCC1c1cc(N2CC(CN3CCCC3)C2)c2nonc2c1` (stereo not drawn) [compound 1555] it was 5 µM; in that of `COc1ccc(-c2cc(N3CC(CN4CCOCC4)C3)c3nonc3c2)cc1OC` [compound 1573, 6-(3,4-dimethoxyphenyl)-4-(3-(morpholinomethyl)azetidin-1-yl) benzo[c][1,2,5]oxadiazole], 12.9 µM; in that of `OCc1cc(N2CC(CN3CCOCC3)C2)c2nonc2c1` [compound 1571, (7-(3-(morpholinomethyl)azetidin-1-yl)benzo[c][1,2,5]oxadiazol-5-yl)methanol], over 20 µM.

For `CS(=O)(=O)N1CCCCC1c1cc(N2CC(CN3CCCC3)C2)c2nonc2c1` (stereo not drawn) [compound 1554], the IC50 was 8.3 µM. Regarding `COc1ccc(-c2cc(N3CC(CN4CCOCC4)C3)c3nonc3c2)cc1F` [compound 1585, 6-(3-fluoro-4-methoxyphenyl)-4-(3-(morpholinomethyl)azetidin-1-yl) benzo[c][1,2,5]oxadiazole], the half-maximal inhibitory concentration (IC50) was 5.8 µM.

Usually IC50 stands for the concentration that gives 50% inhibition.
